Like-named read-outs stand apart in the source and are kept apart here.

What is called pKa is the negative logarithm of the acid dissociation constant. A low value points to a stronger acid or weaker base.

Data set [1] in a line: pKa of the dyes A-OH. It is filed as physicochemical. An excerpt:
The compounds of the formula A--O--B can be used as substrates for the detection and the determination of hydrolases. The dye A--OH, which is liberated on cleavage, has appreciable advantages over those of the state of the art. […] This means that even in the pH range below 7 there is compared with p-nitrophenol, a considerably higher extinction at the same molarity, so that the new substrates prepared from these dyes can therefore be measured with considerably greater sensitivity.

A short description of data set [2]: Extinction coefficients and absorption maxima of dyes at different pH values. It is filed as physicochemical.
Data set [3] has as its system α-amylase. Description: Determination of α-amylase activity in a urine sample without auxiliary enzyme α-glucosidase. It is filed as biochemical. The following applies: for delta A/min / absorbance change, fold greater than with the nitrophenyl derivative: urine sample; for delta A/min: without auxiliary enzyme α-glucosidase. The protocol:
For determination of α-amylase, the measured extinction changes were compared for the following new substrates: 2H-7-O-(α-D-maltotriosyl)-4-methyl-8-nitrobenzopyran-2-one (compound S10), the corresponding maltotetraosyl compound (compound S11) as well as o-nitrophenyl α-maltotrioside.
585 mg of NaCl and 200 mg of compound S10 were dissolved in 100 ml of M/15 phosphate buffer, pH 6.0. 20 μl of urine were pipetted into 1 ml of this solution which was thoroughly mixed. The change in absorbance at 365 nm was continuously recorded in a photometer with a pen recorder attached. The change in absorbance per miute (delta A/min) was calculated from the recording on the pen recorder, and the enzyme activity (U/L) was calculated using the following formula: [formula] 1.02=assay volume including the sample, in ml 0.02=sample volume in ml

Data set [4] relates to IgE. Description: Determination of IgE with a state of the art enzyme immunoassay. The following applies: same incubation periods; for absorbance change: measuring wavelength 405 nm, same sample. The protocol: A substantial increase in sensitivity could be achieved using the new substrates in an enzyme immunoassay of the state of the art. In this assay the IgE concentration is determined, as a measure of an allergy by means of the indirect antibody technique. With the same incubation periods for the different substrates, an approximately 4.3-fold higher absorbance for resorufin-β-galactoside (compound S6) and an approximately 1.7-fold higher absorbance for 3-hydroxy-2-nitropyridine-β-galacto-side was measured than for the commercially available o-nitrophenyl-β-galactoside.

The test system of data set [5] is β-glucosidase. Description: Determination of β-glucosidase activity in a urine sample. It is filed as biochemical, human. The conditions noted are these: for Absorbance Difference/min delta A/min: T = 25° C. An excerpt: The determination of β-glucosidase activity in human urine has hitherto not been possible with the usual assays because of their limited sensitivity.

In data set [1], `Cc1cc(=O)oc2c([N+](=O)[O-])c(O)ccc12` [4-Methyl-8-nitrobenzopyran-2-one, 2H-7-hydroxy-4-methyl-8-nitrobenzopyran-2-one] gave a pKa of 4.45.
In the case of `O=[N+]([O-])c1ncccc1O` [3-Hydroxy-2-nitropyridine], the Extinction coefficient in data set [2] (pH 4.0, 405 nm) is given as 0.50 1·mol^-1·cm^-1·10^3; in data set [2] (pH 5.0, 405 nm), 2.32 1·mol^-1·cm^-1·10^3; in data set [2] (pH 6.0, 405 nm), 5.09 1·mol^-1·cm^-1·10^3; in data set [2] (pH 7.1, 405 nm), 5.80 1·mol^-1·cm^-1·10^3; in data set [2] (pH 10, 405 nm) it was 5.90 1·mol^-1·cm^-1·10^3. The compound further came in with a pKa in data set [1] of 5.1.
For the compound `O=[N+]([O-])c1ccc(O)cc1` [p-Nitrophenol], the Extinction coefficient is recorded as 0.20 1·mol^-1·cm^-1·10^3 in data set [2] (pH 4.0, 405 nm); 0.40 1·mol^-1·cm^-1·10^3 in data set [2] (pH 5.0, 405 nm); 1.50 1·mol^-1·cm^-1·10^3 in data set [2] (pH 6.0, 405 nm); 9.7 1·mol^-1·cm^-1·10^3 in data set [2] (pH 7.1, 405 nm); 18.30 1·mol^-1·cm^-1·10^3 in data set [2] (pH 10, 405 nm).
Consider `N#Cc1c2ccc(=O)cc-2oc2cc(O)ccc12` [compound C1, 3H-7-Hydroxy-9-cyanoxanthen-3-one], for which the absorption maximum in data set [2] was 578 nm. Further, the molar extinction coefficient in data set [2] (578 nm and pH 7.1) is 64,420 1.mol^-1.cm^-1. In addition, the pKa in data set [1] is on record as 5.55.
On to `O=c1oc2cc(O)ccc2cc1[N+](=O)[O-]` [7-hydroxy-3-nitrocoumarin], for which the absorption maximum in data set [2] (pH<6) is on record as 390 nm; in data set [2] (pH>8), 450 nm.
With `O=c1ccc2nc3ccc(O)cc3oc-2c1` [Resorufin, 3H-7-hydroxyphenoxazin-3-one], the Extinction coefficient is given as 1.00 1·mol^-1·cm^-1·10^3 in data set [2] (pH 4.0, 574 nm, mercury lamp photometer, calculated); 0.75 1·mol^-1·cm^-1·10^3 in data set [2] (pH 4.0, 578 nm, variable wavelength photometer); 7.4 1·mol^-1·cm^-1·10^3 in data set [2] (pH 5.0, 574 nm, mercury lamp photometer, calculated); 5.7 1·mol^-1·cm^-1·10^3 in data set [2] (pH 5.0, 578 nm, variable wavelength photometer); 29.64 1·mol^-1·cm^-1·10^3 in data set [2] (pH 6.0, 574 nm, mercury lamp photometer, calculated); 22.80 1·mol^-1·cm^-1·10^3 in data set [2] (pH 6.0, 578 nm, variable wavelength photometer). The Extinction coefficient was 49.87 1·mol^-1·cm^-1·10^3 in data set [2] (pH 7.1, 574 nm, mercury lamp photometer); 39.6 1·mol^-1·cm^-1·10^3 in data set [2] (pH 7.1, 578 nm, variable wavelength photometer); 55.42 1·mol^-1·cm^-1·10^3 in data set [2] (pH 10, 574 nm, mercury lamp photometer); 41.000 1·mol^-1·cm^-1·10^3 in data set [2] (pH 10, 578 nm, variable wavelength photometer).
Consider `O=[N+]([O-])c1ccccc1O[C@H]1O[C@H](CO)[C@@H](O[C@H]2O[C@H](CO)[C@@H](O[C@H]3O[C@H](CO)[C@@H](O)[C@H](O)[C@H]3O)[C@H](O)[C@H]2O)[C@H](O)[C@H]1O` [nitrophenyl derivative, o-nitrophenyl α-maltotrioside], for which the “delta A/min” value in data set [3] was 0,020 A/min.
Turning to `O=[N+]([O-])c1ccccc1O` [o-Nitrophenol], the Extinction coefficient in data set [2] (pH 4.0, 405 nm) is listed as 0.47 1·mol^-1·cm^-1·10^3; in data set [2] (pH 5.0, 405 nm) it was 0.48 1·mol^-1·cm^-1·10^3; in data set [2] (pH 6.0, 405 nm) it was 0.75 1·mol^-1·cm^-1·10^3; in data set [2] (pH 7.1, 405 nm), 2.34 1·mol^-1·cm^-1·10^3; in data set [2] (pH 10, 405 nm), 4.01 1·mol^-1·cm^-1·10^3. Further, the pKa in data set [1] is reported as 7.08.
In the case of `O=[N+]([O-])c1ccccc1O[C@@H]1O[C@H](CO)[C@H](O)[C@H](O)[C@H]1O` [o-Nitrophenyl galactoside, o-nitrophenyl-β-galactoside], the absorbance change in data set [4] is on record as 0.176.
Take `Cc1cc(=O)oc2c([N+](=O)[O-])c(O[C@H]3O[C@H](CO)[C@@H](O[C@H]4O[C@H](CO)[C@@H](O[C@H]5O[C@H](CO)[C@@H](O[C@H]6O[C@H](CO)[C@@H](O)[C@H](O)[C@H]6O)[C@H](O)[C@H]5O)[C@H](O)[C@H]4O)[C@H](O)[C@H]3O)ccc12` [compound S11, 2H-7-O-(α-D-Maltotetraosyl)-4-methyl-8-nitrobenzopyran-2-one]: in data set [3], the “absorbance change, fold greater than with the nitrophenyl derivative” value is “approximately 14 fold” and the “delta A/min” value is recorded as 0,134 A/min.
On to `O=[N+]([O-])c1nc(Cl)ccc1O` [3-Hydroxy-2-nitro-6-chloropyridine], for which the Extinction coefficient in data set [2] (pH 4.0, 365 nm) is reported as 7.84 1·mol^-1·cm^-1·10^3; in data set [2] (pH 5.0, 365 nm), 11.87 1·mol^-1·cm^-1·10^3; in data set [2] (pH 6.0, 365 nm), 12.9 1·mol^-1·cm^-1·10^3; in data set [2] (pH 7.1, 365 nm) it was 13.2 1·mol^-1·cm^-1·10^3; in data set [2] (pH 10, 365 nm), 13.2 1·mol^-1·cm^-1·10^3. The compound further had a pKa in data set [1] of 3.9.
Consider `O=[N+]([O-])c1ccnc(Cl)c1O` [3-Hydroxy-4-nitro-2-chloropyridine], for which the Extinction coefficient in data set [2] (pH 4.0, 405 nm) is recorded as 4.93 1·mol^-1·cm^-1·10^3; in data set [2] (pH 5.0, 405 nm) it was 5.34 1·mol^-1·cm^-1·10^3; in data set [2] (pH 6.0, 405 nm), 5.40 1·mol^-1·cm^-1·10^3; in data set [2] (pH 7.1, 405 nm), 5.48 1·mol^-1·cm^-1·10^3; in data set [2] (pH 10, 405 nm) it was 5.4 1·mol^-1·cm^-1·10^3. In addition, the pKa in data set [1] stood at 3.1.
Regarding `Cc1cc(=O)oc2c([N+](=O)[O-])c(O[C@H]3O[C@H](CO)[C@@H](O[C@H]4O[C@H](CO)[C@@H](O[C@H]5O[C@H](CO)[C@@H](O)[C@H](O)[C@H]5O)[C@H](O)[C@H]4O)[C@H](O)[C@H]3O)ccc12` [compound S10, 2H-7-O-(α-D-Maltotriosyl)-4-methyl-8-nitrobenzopyran-2-one], in data set [3], the “absorbance change, fold greater than with the nitrophenyl derivative” value was 32 fold and the “delta A/min” value was 0,635 A/min.
Consider `O=[N+]([O-])c1ccc(O[C@@H]2O[C@H](CO)[C@@H](O)[C@H](O)[C@H]2O)cc1` [p-nitrophenyl derivative, p-nitrophenyl β-D-glucopyranoside], for which the “Absorbance Difference/min delta A/min” value in data set [5] is 0,0476 A/min.
For the compound `O=[N+]([O-])c1ncccc1O[C@@H]1O[C@H](CO)[C@H](O)[C@H](O)[C@H]1O` [compound S7, 3-O-(β-D-Galactopyranosyl)-2-nitropyridine], in data set [4], the absorbance change was 0.298 and the “fold higher absorbance than o-nitrophenyl-β-galactoside” value is reported as “approximately 1.7 fold”.
Turning to `O=[N+]([O-])c1ncccc1O[C@H]1O[C@H](CO)[C@@H](O[C@H]2O[C@H](CO)[C@@H](O[C@H]3O[C@H](CO)[C@@H](O)[C@H](O)[C@H]3O)[C@H](O)[C@H]2O)[C@H](O)[C@H]1O` [compound S12, 3-O-(α-D-Maltotriosyl)-2-nitropyridine], the “absorbance changes in comparison with the state of the art” value in data set [3] (without auxiliary enzyme, immediately linear kinetics) is “sufficiently high absorbance changes”.
Consider `O=[N+]([O-])c1ncccc1O[C@@H]1O[C@H](CO)[C@@H](O)[C@H](O)[C@H]1O` [compound S5, 3-O-(β-D-Glucopyranosyl)-2-nitropyridine], for which, in data set [5], the “fold larger absorbance change per minute than with p-nitrophenyl β-D-glucopyranoside” value is “approximately 7 fold” and the “Absorbance Difference/min delta A/min” value was 0,332 A/min.
